# Experimental data taken from patent US10624948B2, “Use of cell-permeable peptide inhibitors of the JNK signal transduction pathway for the treatment of various diseases” (Xigen Inflammation Ltd., priority 2013, dated 2020).
# Square brackets hold non-standard residues; d marks the D form. Ends that are not written are not given here.
# How the values were obtained:
# [1] = system: Sprague-Dawley albino rats, light-induced photoreceptor cell death; format: in vivo
# Description: The aim of this study was to investigate the dose effect of XG-102 on light-induced photoreceptor cell death.
# Test item (XG-102: 30 mg/ml, 3 mg/ml, and 0.3 mg/ml) and vehicle (0.9% NaCl) were administered by intravitreal injection in right eyes the day before induction. The reference (Phenyl-N-test-Butylnitrone (PBN) (50 mg/kg)) and vehicle were intraperitoneally injected 30 min before induction then, 3 times during 12 hours of light exposition, then once after induction. Animals were placed in constant light (7000 lux) for 24 h. Electroretinograms (ERG) were recorded before light treatment and on days 9, 16 and 23 after induction. Eyes were then taken for histology and outer nuclear layer (ONL) thickness assessment. The table below summarizes the allocation of animals in treatment groups:
# For the intravitreal injection animals were anesthetized by intramuscular injection of a mixture of xylazine/ketamine. Test item (5 μl) and vehicle (5 μl) were injected in the right eye. The injection was performed under an operating microscope in the supratemporal area at pars plana using a 33G-needle mounted on a 50 μl Hamilton. The filled syringe was mounted into the UltraMicroPump III to achieve accurate injection in microliter range. Reference and vehicle were injected intraperitoneally at a dose volume of 2.5 ml/kg using a 30G-needle mounted on a 1 ml-syringe.
# Light Exposure: The rats that had been dark-adapted overnight were exposed for 24 hours to a continuous white fluorescent light (7000 lx) in clear plastic cages. Each cage contained one rat. After exposure, the rats returned to rearing cyclic light conditions.
# ERG was recorded before induction and 7, 14 and 21 days after cessation of exposure (Days 9, 16 and 23) on right eyes of dark-adapted and anesthezied animals. The latency times (for a- and b-wave) and the a-wave and b-wave amplitudes were measured for each ERG; the latency times were expressed as millisecond and the a-wave and b-wave as a percentage of the baseline value obtained before light exposure. 15 min before measurement 10 μl Mydriaticum® (0.5% tropicamide) were instilled for pupillary dilatation.
# Measurement of the ONL Thickness: After ERG testing, animal was euthanized by an overdose of pentobarbital and the right eyes were enucleated, fixed and embedded in paraffin. Sections (5 μm thick) were performed along the vertical meridian and stained with Trichrome-Masson. The vertical meridian included the optic nerve.
# TC-3 cell cultures = assay: Cellular import of fluorescein labeled TAT and TAT-IB1(s) peptides; format: cell-based; conditions: labeled peptides 1 μM
# Description: The ability of the L- and D-enantiomeric forms of TAT and TAT-IB1(s) peptides (“TAT-IB peptides”) to enter cells was evaluated. L-TAT, D-TAT, L-TAT-IB1(s), and D-TAT-IB1(s) peptides [SEQ ID NOs: 5, 6, 9 and 12, respectively] were labeled by N-terminal addition of a glycine residue conjugated to fluorescein. Labeled peptides (1 μM) were added to TC-3 cell cultures, which were maintained as described in Example 3. At predetermined times cells were washed with PBS and fixed for five minutes in ice-cold methanol-acetone (1:1) before being examined under a fluorescence microscope. Fluorescein-labeled BSA (1 μM, 12 moles/mole BSA) was used as a control.
# Little to no signal was present at 48 hours.
# Fluorescent signals from these all-D retro-inverso peptides were still very strong 1 week later, and the signal was only slightly diminished at 2 weeks post treatment.
# [2] = system: recombinant JNK1, JNK2 and JNK3; assay: Solid phase kinase assay, phosphorylation of c-Jun, ATF2 and Elk1; format: biochemical; conditions: dose response 0-25 μM
# Description: The effects of the peptides on JNKs-mediated phosphorylation of their target transcription factors were investigated in vitro. Recombinant and non activated JNK1, JNK2 and JNK3 were produced using a TRANSCRIPTION AND TRANSLATION rabbit reticulocyte lysate kit (Promega) and used in solid phase kinase assays with c-Jun, ATF2 and Elk1, either alone or fused to glutathione-S-transferase (GST), as substrates. Dose response studies were performed wherein L-TAT or L-TAT-IB1(s) peptides (0-25 μM) were mixed with the recombinant JNK1, JNK2, or JNK3 kinases in reaction buffer (20 mM Tris-acetate, 1 mM EGTA, 10 mM p-nitrophenyl-phosphate (pNPP), 5 mM sodium pyrophosphate, 10 mM p-glycerophosphate, 1 mM dithiothreitol) for 20 minutes. The kinase reactions were then initiated by the addition of 10 mM MgCl2 and 5 pCi ^33P-dATP and 1 μg of either GST-Jun (aa 1-89), GST-AFT2 (aa 1-96) or GST-ELK1 (aa 307-428). GST-fusion proteins were purchased from Stratagene (La Jolla, Calif.).
# Ten μL of glutathione-agarose beads were also added to the mixture. Reaction products were then separated by SDS-PAGE on a denaturing 10% polyacrylamide gel. Gels were dried and subsequently exposed to X-ray films (Kodak). […] The ability of D-TAT, D-TAT-IB1(s) and L-TAT-IB1(s) peptides (0-250 μM dosage study) to inhibit GST-Jun (aa 1-73) phosphorylation by recombinant JNK1, JNK2, and JNK3 by were analyzed as described above. […]
# TC-3 cells = assay: IL-1 induced pancreatic beta-cell death; format: cell-based; conditions: one single addition 1 μM
# Description: Inhibition of IL-1 induced pancreatic beta-cell death by the D-TAT-IB1(s) peptide was analyzed. TC-3 cells were incubated as described above for 30 minutes with one single addition of the indicated peptides (1, μM), then IL-1 (10 ng/ml) was added.
# Apoptotic cells were then counted after two days of incubation with IL-1 by use of Propidium Iodide and Hoechst 33342 nuclear staining. A minimum of 1,000 cells were counted for each experiment. Standard Error of the Means (SEM) are indicated, n=5.
# Long term inhibition of IL-1P induced cell-death by the D-TAT-IB1 peptide was also analyzed. TC-3 cells were incubated as above for 30 minutes with one single addition of the indicated peptides (1 μM), then IL-1 (10 ng/ml) was added, followed by addition of the cytokine every two days. Apoptotic cells were then counted after 15 days of incubation with IL-1 by use of propidium iodide and Hoechst 33342 nuclear staining. […] A minimum of 1.000 cells were counted for each experiment.
# [3] = system: JNKs from UV-light irradiated HeLa cells or IL-1 treated PTC cells; assay: c-Jun phosphorylation by activated JNKs pulled down with GST-Jun; format: biochemical; conditions: 25 μM
# Description: The effects of the L-TAT or L-TAT-IB1(s) peptides as defined herein on JNKs activated by stressful stimuli were evaluated using GST-Jun to pull down JNKs from UV-light irradiated HeLa cells or IL-1 treated PTC cells. PTC cells were cultured as described above. HeLa cells were cultured in DMEM medium supplemented with 10% Fetal Calf Serum, 100 μg/mL Streptomycin, 100 units/ml Penicillin and 2 mM Glutamine. One hour prior to being used for cell extract preparation, PTC cells were activated with IL-1 as described above, whereas HeLa cells were activated by UV-light (20 J/m^2). Cell extracts were prepared from control, UV-light irradiated HeLa cells and IL-1 treated TC-3 cells by scraping the cell cultures in lysis buffer (20 mM Tris-acetate, 1 mM EGTA, 1% Triton X-100, 10 mM p-nitrophenyl-phosphate, 5 mM sodium pyrophosphate, 10 mMP-glycerophosphate, 1 mM dithiothreitol). Debris was removed by centrifugation for five minutes at 15,000 rpm in an SS-34 Beckman rotor. One-hundred μg extracts were incubated for one hour at room temperature with one μg GST-jun (amino acids 1-89) and 10 μL of glutathione-agarose beads (Sigma). Following four washes with the scraping buffer, the beads were resuspended in the same buffer supplemented with L-TAT or L-TAT-IB1(s) peptides (25 μM) for 20 minutes. […]
# [4] = system: JNK signaling in HeLa cells (GAL-Jun, MKK4/MKK7); assay: GAL4 luciferase reporter of c-Jun activation; format: cell-based; conditions: 1 μM, 16 hours
# Source text: To determine whether the cell-permeable peptides as defined herein could block JNK signaling in vivo, we used a heterologous GAL4 system. HeLa cells, cultured as described above, were co-transfected with the 5×GAL-LUC reporter vector together with the GAL-Jun expression construct (Stratagene) comprising the activation domain of c-Jun (amino acids 1-89) linked to the GAL4 DNA-binding domain. Activation of JNK was achieved by the co-transfection of vectors expressing the directly upstream kinases MKK4 and MKK7 (see Whitmarsh et al., Science 285: 1573 (1999)). Briefly, 3×10^5 cells were transfected with the plasmids in 3.5-cm dishes using DOTAP (Boehringer Mannheim) following instructions from the manufacturer. For experiments involving GAL-Jun, 20 ng of the plasmid was transfected with 1 μg of the reporter plasmid pFR-Luc (Stratagene) and 0.5 μg of either MKK4 or MKK7 expressing plasmids. Three hours following transfection, cell media were changed and TAT and TAT-IB1(s) peptides (1 μM) were added. The luciferase activities were measured 16 hours later using the “Dual Reporter System” from Promega after normalization to protein content. […] Because HeLa cells express JNK1 and JNK2 isoforms but not JNK3, we transfected cells with JNK3.
# [5] = system: AP-1 DNA binding complex, HeLa cell nuclear extracts; assay: Gel retardation assay with AP-1 probe; format: cell-based; conditions: in the presence of TNF-alpha
compound,measurement,setting,value
"CC(C)(C)[N+]([O-])=Cc1ccccc1 [PBN, Phenyl-N-tert-Butylnitrone, reference compound]",decrease of mean ONL thickness vs untreated eyes,"[1]; PBN i.p., Day 23",16%
same,"ERG B-wave amplitude, percent of the baseline, Mean ± SD","[1]; rat, in vivo, ip, 50 mg/kg",100 ± 18.6%
"Fluorescein-labeled BSA: fluorescein labeled bovine serum albumin (1 μM BSA, 12 moles fluorescein/mole BSA), control",entry into cells,TC-3 cell cultures,did not enter the cells
GRKKRRQRRRPPRPKRPTTLNLFPQVPRSQD (Description of sequence: L-TAT-IB1 (s) (see Table 1)) [L-TAT-IB1(s)],"peptide dose giving nearly complete inhibition of c-Jun, ATF2 and Elk1 phosphorylation by JNKs",[2],2.5 µM
same,long term (15 day) protection from IL-1 induced cell-death,TC-3 cells; IL-1 every two days,"but not L-TAT-IB1(s), was able to confer long term (15 day) protection"
same,prevention of phosphorylation of c-Jun by activated JNKs,[3],efficiently prevented phosphorylation of c-Jun by activated JNKs
same,activation of c-Jun following MKK4 and MKK7 mediated activation of JNK (luciferase),[4],blocked activation of c-Jun following MKK4 and MKK7 mediated activation of JNK
same,formation of the AP-1 DNA binding complex,[5],decrease the formation of the AP-1 DNA binding complex
TDQSRPVQPFLNLTTPRKPRYTDPPRRRQRRKKRG ([dT][dD][dQ][dS][dR][dP][dV][dQ][dP][dF][dL][dN][dL][dT][dT][dP][dR][dK][dP][dR][dY][dT][dD][dP][dP][dR][dR][dR][dQ][dR][dR][dK][dK][dR]G) [D-TAT-IB1],IL-1 induced apoptosis after two days,TC-3 cells; IL-1 10 ng/ml,decreased IL-1 induced apoptosis to a similar extent as L-TAT-IB peptides
